In brackets after ≈: the same amount, converted by molar mass. Activity calls are given as the source filed them. The calls are words filed in the database; no cut-off is given here.
tested on: Mycobacterium tuberculosis; test: Antimycobacterial activity against Mycobacterium bovis BCG by alamar blue assay; type: functional; conditions: variant bovis BCG

Structure (SMILES) | MIC
CCCCCCCCc1cn([C@@H]2O[C@H](CO)[C@@H](O)[C@@H]2O)nn1 | 62 µg/mL (≈ 198 µM)
NNC(=O)c1ccncc1 [ISONIAZID] | 0.1 µg/mL (≈ 0.729 µM)
CCCCCCCCCCc1cn([C@@H]2O[C@H](CO)[C@@H](O)[C@@H]2O)nn1 | 250 µg/mL (≈ 732 µM)
CCCCCCc1cn([C@@H]2O[C@H](CO)[C@@H](O)[C@@H]2O)nn1 | 500 µg/mL (≈ 1750 µM)
CC(C)=CCC/C(C)=C/CC/C(C)=C/COCc1cn([C@@H]2O[C@H](CO)[C@@H](O)[C@@H]2O)nn1 | 62 µg/mL (≈ 142 µM)
CCCCCCCCCCCCCCOCc1cn([C@@H]2O[C@H](CO)[C@@H](O)[C@@H]2O)nn1 | 31 µg/mL (≈ 72.5 µM)

tested on: Mycobacterium tuberculosis; test: Antimycobacterial activity against Mycobacterium bovis BCG at 1 mg/mL by alamar blue assay; type: functional, organism-based; conditions: variant bovis BCG

Structure (SMILES) | Activity
OC[C@H]1O[C@@H](n2cc(-c3ccccc3)nn2)[C@@H](O)[C@@H]1O | inactive

From ChEMBL document CHEMBL1152256, “Synthesis of Arabino glycosyl triazoles as potential inhibitors of mycobacterial cell wall biosynthesis” (2008)
